Patent publication US20030180385A1 (priority 2002, published 2003)
Like-named read-outs stand apart in the source and are kept apart here. Marks after values point to notes of the source that are not given here.

Experiments:
Fusarium graminearum = format: cell-based; settings: for % of Fusarium graminearum: barley var. Lacey
[1] = 8 hours steeping
barley seeds = settings: in vivo
bacteria = format: cell-based
Alternaria spp. = format: cell-based; settings: barley var. Lacey
[2] = DON variation during the malting process; settings: for % DON reduction: H process
Procedure: The goal of this experiment was to follow the main steps of malt production for DON increase or decrease when barley seeds were submitted to the hypochlorite process during the first steeping, compared with the same seed not submitted to the hypochlorite process. Two samples of 1000 grams of barley seeds infected with 3.2 ppm of DON were malted and their DON contents were measured during the following steps:
1. On 50 grams of seeds just after the first steeping (7 hours steep)
2. On 50 grams of seeds just after the second steeping (5 hours steep)
3. On 50 grams of seeds on the second day of malting (half malting)
4. On 50 grams of seeds on the fourth day of malting (end of malting)
5. On 50 grams of seeds after the fist step of kilning (6 hours at 45° C.)
6. On 50 grams of seeds after the second step of kilning (3 hours at 65° C.)
7. On 50 grams of seeds after the third step of kilning (2 hours at 85° C.)
8. Control (dry seeds without treatment).

Fusarium = settings: literature reports; cited from earlier work
[3] = wheat seeds; 1% concentration; cited from earlier work
[4] = Table 6, means of 50 seeds plated in ¼ PDA medium

| SMILES | Germin. (%) (barley seeds) | Bacteria (%) (bacteria) | Fusarium (%) (Fusarium graminearum) | % Germination (barley seeds) [%] | % Bacteria (bacteria) [%] | also measured |
| --- | --- | --- | --- | --- | --- | --- |
| CC(=O)O [Ac. Ac. Glacial 0.5, glacial acetic acid] | 8 | 2 |  |  |  | Fusarium (%) (Fusarium graminearum; Table 4, 8 hours steeping): 4%; Total % of DON reduction ([1]; Table 4): 62.9%; DON ([1]; Table 4, dry seeds 9.7): 3.6 µg/mL |
| CC(=O)O [Ac. Ac. Glacial 0.25%, glacial acetic acid] | 64 | 6 |  |  |  | Fusarium (%) (Fusarium graminearum; Table 4, 8 hours steeping): 2%; Total % of DON reduction ([1]; Table 4): 71.1%; DON ([1]; Table 4, dry seeds 9.7): 2.8 µg/mL |
| CC(=O)O [Ac. Ac. Glacial 1.0, glacial acetic acid] | 0 | 0 |  |  |  | Fusarium (%) (Fusarium graminearum; Table 4, 8 hours steeping): 2%; Total % of DON reduction ([1]; Table 4): 71.1%; DON ([1]; Table 4, dry seeds 9.7): 2.8 µg/mL |
| CC(=O)OO [Ac. Perac. 0.1%, peracetic acid] | 94 | 48 | 56% |  |  |  |
| CC(=O)OO [Ac. Perac. 0.5%, peracetic acid] | 28 | 28 | 4% |  |  |  |
| CC(=O)OO [Ac. Perac. 0.25%, peracetic acid] | 76 | 62 | 2% |  |  |  |
| CC(=O)OO [Ac. Perac. 1.0%, peracetic acid] | 0 | 4 | 4% |  |  |  |
| CC(=O)OO [Ac. Perac. 2.0%, peracetic acid] | 0 | 0 | 2% |  |  |  |
| CCO [Alco. 1%, Alcohol] | 72 | 94 | 94% |  |  |  |
| CCO [Alco. 10%, Alcohol] | 2 | 100 | 44* % |  |  |  |
| CCOC(C)=O [Eth. Ac. 1%, Ethyl Acetate] | 6 | 90 |  |  |  | Fusarium (%) (Fusarium graminearum; Table 3, 8 hours steeping): 88%; Total % of DON reduction ([1]; Table 3): 68%; DON ([1]; Table 3, dry seeds 10.9): 3.5 µg/mL |
| CCOC(C)=O [Eth. Ac. 10%, Ethyl Acetate] | 0 | 4 |  |  |  | Fusarium (%) (Fusarium graminearum; Table 3, 8 hours steeping): 0%; Total % of DON reduction ([1]; Table 3): 70%; DON ([1]; Table 3, dry seeds 10.9): 3.3 µg/mL |
| OO [H2O2 1.0%, peroxide] | 94 | 47 | 38% |  |  |  |
| OO [H2O2 3.0%, peroxide] | 92 | 62 | 20% |  |  |  |
| OCl [Hypochlorite 0.8%, hypochlorite] | 80 | 2 |  | 88 | 0 | % of Alternaria spp. (Alternaria spp.; 2 min. disinfestations): 66%; % of Alternaria spp. (Alternaria spp.; 3 min. disinfestations): 68%; Fusarium (%) (Fusarium graminearum; Table 4, 8 hours steeping): 2%; % Fusarium (Fusarium graminearum; [4]): 8%; % of Fusarium graminearum (Fusarium graminearum; 2 min. disinfestations): 20%; % of Fusarium graminearum (Fusarium graminearum; 3 min. disinfestations): 18%; Total % of DON reduction ([1]; Table 4): 87.6%; DON ([1]; Table 4, dry seeds 9.7): 1.2 µg/mL |
| [K+].[OH-] [KOH (0.5%), potassium hydroxide] |  |  |  | 96 | 44 | % Fusarium (Fusarium graminearum): 44% |
| [K+].[OH-] [KOH (0.25%), potassium hydroxide] |  |  |  | 94 | 82 | % Fusarium (Fusarium graminearum): 76% |
| O=P([O-])([O-])O.[Na+].[Na+] [Na2HPO4 (0.5%), sodium phosphate dibasic] |  |  |  | 94 | 72 | % Fusarium (Fusarium graminearum; [4]): 70% |
| O=P([O-])([O-])O.[Na+].[Na+] [Na2HPO4 (0.25%), sodium phosphate dibasic] |  |  |  | 98 | 68 | % Fusarium (Fusarium graminearum; [4]): 68% |
| O=C([O-])O.[Na+] [NaHCO3 (0.5%), sodium bicarbonate] |  |  |  | 88 | 84 | % Fusarium (Fusarium graminearum; [4]): 72% |
| O=C([O-])O.[Na+] [NaHCO3 (0.25%), sodium bicarbonate] |  |  |  | 90 | 70 | % Fusarium (Fusarium graminearum; [4]): 52% |
| [Na+].[OH-] [NaOH 0.1%, sodium hydroxide] | 76 | 74 | 76% |  |  |  |
| [Na+].[OH-] [NaOH 0.5%, sodium hydroxide] | 88 | 50 | 68% | 96 | 8 | % Fusarium (Fusarium graminearum): 40% |
| [Na+].[OH-] [NaOH 0.25%, sodium hydroxide] | 96 | 80 | 88% | 94 | 44 | % Fusarium (Fusarium graminearum): 44% |
| [Na+].[OH-] [NaOH 1.0%, sodium hydroxide] | 66 | 6 | 2% |  |  |  |
| [Cl-].[Na+] [Salt 1%, NaCl] | 72 | 76 |  |  |  | Fusarium (%) (Fusarium graminearum; Table 3, 8 hours steeping): 90%; Total % of DON reduction ([1]; Table 3): 71%; DON ([1]; Table 3, dry seeds 10.9): 3.1 µg/mL |
| [Cl-].[Na+] [Salt 5%, NaCl] | 80 | 78 |  |  |  | Fusarium (%) (Fusarium graminearum; Table 3, 8 hours steeping): 84%; Total % of DON reduction ([1]; Table 3): 77%; DON ([1]; Table 3, dry seeds 10.9): 2.5 µg/mL |
| OCl [hypochlorite] |  |  |  |  |  | DON levels on "H" process (b) ([2]; 1. After the first steeping, seeds with 3.2 ppm DON): 0.7 ppm; DON levels on "H" process (b) ([2]; 2. After the second steeping): 0.4 ppm; DON levels on "H" process (b) ([2]; 3. Second day of malting): 0.4 ppm; DON levels on "H" process (b) ([2]; 4. Fourth day of malting): 0.4 ppm; DON levels on "H" process (b) ([2]; 5. Fist step of kilning): 0.3 ppm; DON levels on "H" process (b) ([2]; 6. Second step of kilning): 0.3 ppm; DON levels on "H" process (b) ([2]; 7. Third step of kilning): 0.4 ppm; % DON reduction ([2]; 1. After the first steeping): 78.1%; % DON reduction ([2]; 2. After the second steeping): 87.5%; % DON reduction ([2]; 3. Second day of malting): 87.5%; % DON reduction ([2]; 4. Fourth day of malting): 87.5%; % DON reduction ([2]; 5. Fist step of kilning): 90.6%; % DON reduction ([2]; 6. Second step of kilning): 90.6%; % DON reduction ([2]; 7. Third step of kilning): 87.5%; Fusarium reduction from seeds (Fusarium): ≤ 50% |
| OCl [sodium hypochlorite] |  |  |  |  |  | increase of the level of the toxin (DON) [3]: 24%; level of the toxin (DON) after treatment [3]: 1.24 ppm |
